Measurements published in US10533000B2, “Metabotrophic glutamate receptor 5 modulators and methods of use thereof” (Sunovion Pharmaceuticals, Inc., priority 2011, dated 2020).

Target: mGluR5 (Homo sapiens, UniProt P41594)
Assay: mGluR5 positive allosteric modulator (PAM) functional assay
Type: cell-based

mGluR5, sequence (P41594 21-1212): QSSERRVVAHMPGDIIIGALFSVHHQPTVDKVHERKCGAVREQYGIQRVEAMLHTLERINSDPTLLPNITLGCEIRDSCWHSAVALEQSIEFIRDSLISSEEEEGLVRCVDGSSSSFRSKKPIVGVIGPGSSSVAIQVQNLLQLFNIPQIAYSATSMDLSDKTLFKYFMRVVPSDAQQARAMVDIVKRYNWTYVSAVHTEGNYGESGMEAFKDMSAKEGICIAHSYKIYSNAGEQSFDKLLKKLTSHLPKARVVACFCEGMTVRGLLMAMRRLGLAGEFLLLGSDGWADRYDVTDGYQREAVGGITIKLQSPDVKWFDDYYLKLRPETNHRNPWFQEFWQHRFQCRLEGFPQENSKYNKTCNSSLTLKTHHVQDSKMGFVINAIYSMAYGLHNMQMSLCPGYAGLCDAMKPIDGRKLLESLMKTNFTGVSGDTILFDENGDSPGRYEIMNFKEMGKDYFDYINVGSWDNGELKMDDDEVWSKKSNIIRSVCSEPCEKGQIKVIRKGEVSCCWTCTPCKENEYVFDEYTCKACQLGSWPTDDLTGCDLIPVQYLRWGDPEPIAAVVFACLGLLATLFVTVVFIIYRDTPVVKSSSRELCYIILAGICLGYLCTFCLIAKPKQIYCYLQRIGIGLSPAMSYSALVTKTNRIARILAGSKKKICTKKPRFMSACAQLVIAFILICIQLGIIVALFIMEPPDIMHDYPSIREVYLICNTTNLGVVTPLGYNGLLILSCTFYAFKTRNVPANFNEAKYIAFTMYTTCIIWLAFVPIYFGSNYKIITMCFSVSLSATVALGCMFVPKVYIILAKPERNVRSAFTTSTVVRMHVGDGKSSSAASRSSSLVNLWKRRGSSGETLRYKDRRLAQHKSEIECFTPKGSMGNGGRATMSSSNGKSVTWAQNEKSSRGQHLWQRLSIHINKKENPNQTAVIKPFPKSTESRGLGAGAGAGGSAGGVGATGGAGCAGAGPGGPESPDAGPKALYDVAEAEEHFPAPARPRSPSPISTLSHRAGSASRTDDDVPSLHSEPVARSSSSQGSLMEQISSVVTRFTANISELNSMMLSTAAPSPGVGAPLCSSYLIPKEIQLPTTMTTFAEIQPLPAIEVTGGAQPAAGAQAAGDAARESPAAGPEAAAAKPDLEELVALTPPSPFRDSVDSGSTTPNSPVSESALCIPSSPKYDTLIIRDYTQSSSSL

EC50 [nM]	Compound
≤ 30	CN1CCCC1(C)c1nc(-c2ccc(C#Cc3cccc(F)c3)cn2)no1 (centres unmarked) [Compound 51, 5-(1,2-dimethylpyrrolidin-2-yl)-3-(5-((3-fluorophenyl)ethynyl)pyridin-2-yl)-1,2,4-oxadiazole]
≤ 30	CN(C)C1(c2nc(-c3ccc(C#Cc4cccc(F)c4)cn3)no2)CC1 [Compound 118, 1-(3-(5-((3-fluorophenyl)ethynyl)pyridin-2-yl)-1,2,4-oxadiazol-5-yl)-N,N-dimethylcyclopropanamine]
≤ 30	C[C@@H](c1nc(-c2ccc(C#Cc3cccc(F)c3)cn2)no1)N(C)C [Compound 106, (S)-1-(3-(5-((3-fluorophenyl)ethynyl)pyridin-2-yl)-1,2,4-oxadiazol-5-yl)-N,N-dimethylethanamine]
30 to 100	CN1C[C@H](O)C[C@H]1c1nc(-c2ccc(C#Cc3cccc(F)c3)cn2)no1 [Compound 130, (3R,5S)-5-(3-(5-((3-fluorophenyl)ethynyl)pyridin-2-yl)-1,2,4-oxadiazol-5-yl)-1-methylpyrrolidin-3-ol]
30 to 100	Fc1cccc(C#Cc2ccc(-c3noc(C4CCCN4C4CCC4)n3)nc2)c1 (centres unmarked) [Compound 126, 5-(1-cyclobutylpyrrolidin-2-yl)-3-(5-((3-fluorophenyl)ethynyl)pyridin-2-yl)-1,2,4-oxadiazole]
300 to 1000	O[C@H]1CN[C@H](c2nc(-c3ccc(C#Cc4cccc(F)c4)cn3)no2)C1 [Compound 129, (3R,5S)-5-(3-(5-((3-fluorophenyl)ethynyl)pyridin-2-yl)-1,2,4-oxadiazol-5-yl)pyrrolidin-3-ol]
≤ 30	CC(NC1CC1)c1nc(-c2ccc(C#Cc3cccc(F)c3)cn2)no1 (centres unmarked) [Compound 109, N-(1-(3-(5-((3-fluorophenyl)ethynyl)pyridin-2-yl)-1,2,4-oxadiazol-5-yl)ethyl)cyclopropanamine]
≤ 30	CNC(C)(C)c1nc(-c2ccc(C#Cc3cccc(F)c3)cn2)no1 [Compound 112, 2-(3-(5-((3-fluorophenyl)ethynyl)pyridin-2-yl)-1,2,4-oxadiazol-5-yl)-N-methylpropan-2-amine]
300 to 1000	Fc1cccc(C#Cc2ccc(-c3noc(C4CCCN4)n3)nc2)c1 (centres unmarked) [Compound 119, 3-(5-((3-fluorophenyl)ethynyl)pyridin-2-yl)-5-(pyrrolidin-2-yl)-1,2,4-oxadiazole]
30 to 100	CN(C)Cc1nc(-c2ccc(C#Cc3cccc(F)c3)cn2)no1 [Compound 103, 1-(3-(5-((3-fluorophenyl)ethynyl)pyridin-2-yl)-1,2,4-oxadiazol-5-yl)-N,N-dimethylmethanamine]
30 to 100	CNC(C)c1nc(-c2ccc(C#Cc3cccc(F)c3)cn2)no1 (centres unmarked) [Compound 107, 1-(3-(5-((3-fluorophenyl)ethynyl)pyridin-2-yl)-1,2,4-oxadiazol-5-yl)-N-methylethanamine]
100 to 300	CC1(c2nc(-c3ccc(C#Cc4cccc(F)c4)cn3)no2)CCCN1 (centres unmarked) [Compound 122, 3-(5-((3-fluorophenyl)ethynyl)pyridin-2-yl)-5-(2-methylpyrrolidin-2-yl)-1,2,4-oxadiazole]
30 to 100	C[C@H](c1nc(-c2ccc(C#Cc3cccc(F)c3)cn2)no1)N(C)C [Compound 105, (R)-1-(3-(5-((3-fluorophenyl)ethynyl)pyridin-2-yl)-1,2,4-oxadiazol-5-yl)-N,N-dimethylethanamine]
≤ 30	CCC(C)c1nc(-c2ccc(C#Cc3cccc(F)c3)cn2)no1 (centres unmarked) [Compound 94, 5-(sec-butyl)-3-(5-((3-fluorophenyl)ethynyl)pyridin-2-yl)-1,2,4-oxadiazole]

Further lines, the compound ahead of its results:

Compound	EC50 [nM]
Fc1cccc(C#Cc2ccc(-c3noc(C4CCCC4)n3)cn2)c1 [Compound 83, 5-cyclopentyl-3-(6-((3-fluorophenyl)ethynyl)pyridin-3-yl)-1,2,4-oxadiazole]	100 to 300
CC[C@H](C)c1nc(-c2ccc(C#Cc3ccncc3)cc2)no1 (single isomer, unassigned) [Compound 72]	100 to 300
Clc1cccc(C#Cc2ccc(-c3noc(C4CCCN4)n3)nc2)c1 (centres unmarked) [Compound 166, 3-(5-((3-chlorophenyl)ethynyl)pyridin-2-yl)-5-(pyrrolidin-2-yl)-1,2,4-oxadiazole]	300 to 1000
CN1CCCC1c1nc(-c2ccc(C#Cc3ccccn3)cc2)no1 (centres unmarked) [Compound 70, 5-(1-methylpyrrolidin-2-yl)-3-(4-(pyridin-2-ylethynyl)phenyl)-1,2,4-oxadiazole]	≤ 30
CC(c1nc(-c2ccc(C#Cc3cccc(F)c3)cn2)no1)N(C)C (centres unmarked) [Compound 104, 1-(3-(5-((3-fluorophenyl)ethynyl)pyridin-2-yl)-1,2,4-oxadiazol-5-yl)-N,N-dimethylethanamine]	100 to 300
CC(C)(C)c1noc(-c2ccc(C#Cc3cccc(F)c3)cc2)n1 [Compound 17, 3-(tert-butyl)-5-(4-((3-fluorophenyl)ethynyl)phenyl)-1,2,4-oxadiazole]	300 to 1000
CC(c1nc(-c2ccc(C#Cc3cccc(F)c3)cn2)no1)N1CCCC1 (centres unmarked) [Compound 108, 3-(5-((3-fluorophenyl)ethynyl)pyridin-2-yl)-5-(1-(pyrrolidin-1-yl)ethyl)-1,2,4-oxadiazole]	≤ 30
CCN(CC)C(C)c1nc(-c2ccc(C#Cc3cccc(F)c3)cn2)no1 (centres unmarked) [Compound 111, N,N-diethyl-1-(3-(5-((3-fluorophenyl)ethynyl)pyridin-2-yl)-1,2,4-oxadiazol-5-yl)ethanamine]	≤ 30
CN(C)C(C)(C)c1nc(-c2ccc(C#Cc3ccccn3)cn2)no1 [Compound 145, N,N-dimethyl-2-(3-(5-(pyridin-2-ylethynyl)pyridin-2-yl)-1,2,4-oxadiazol-5-yl)propan-2-amine]	30 to 100
CN1CCCC1c1nc(-c2ccc(C#Cc3ccncc3)cc2)no1 (centres unmarked) [Compound 78, 5-(1-methylpyrrolidin-2-yl)-3-(4-(pyridin-4-ylethynyl)phenyl)-1,2,4-oxadiazole]	≤ 30
C(#Cc1ccccn1)c1ccc(-c2noc(C34CCCN3CCC4)n2)nc1 [Compound 170, 5-(hexahydro-1H-pyrrolizin-7a-yl)-3-(5-(pyridin-2-ylethynyl)pyridin-2-yl)-1,2,4oxadiazole]	30 to 100
COC(C)c1nc(-c2ccc(C#Cc3cccc(F)c3)cc2)no1 (centres unmarked) [Compound 58, 3-(4-((3-fluorophenyl)ethynyl)phenyl)-5-(1-methoxyethyl)-1,2,4-oxadiazole]	100 to 300
COC(C)c1nc(-c2ccc(C#Cc3ccncc3)cn2)no1 (centres unmarked) [Compound 159, 5-(1-methoxyethyl)-3-(5-(pyridin-4-ylethynyl)pyridin-2-yl)-1.2.4-oxadiazole]	100 to 300
CC(c1nc(-c2ccc(C#Cc3ccccn3)cn2)no1)N1CCCC1 (centres unmarked) [Compound 142, 3-(5-(pyridin-2-ylethynyl)pyridin-2-yl)-5-(1-(pyrrolidin-1-yl)ethyl)-1,2,4-oxadiazole]	30 to 100
CCC(CC)c1nc(-c2ccc(C#Cc3ccncc3)nc2)no1 [Compound 91, 5-(pentan-3-yl)-3-(6-(pyridin-4-ylethynyl)pyridin-3-yl)-1,2,4-oxadiazole]	≤ 30
CCC(C)c1nnc(-c2ccc(C#Cc3cccc(F)c3)cc2)o1 (centres unmarked) [Compound 2, 2-(sec-butyl)-5-(4-((3-fluorophenyl)ethynyl)phenyl)-1,3,4-oxadiazole]	100 to 300
CCC(OC)c1nc(-c2ccc(C#Cc3cccc(F)c3)cn2)no1 (centres unmarked) [Compound 97, 3-(5-((3-fluorophenyl)ethynyl)pyridin-2-yl)-5-(1-methoxypropyl)-1,2,4-oxadiazole]	≤ 30
COC(C)c1nc(-c2ccc(C#Cc3ccncc3)nc2)no1 (centres unmarked) [Compound 92, 5-(1-methoxyethyl)-3-(6-(pyridin-4-ylethynyl)pyridin-3-yl)-1,2,4-oxadiazole]	100 to 300
CCC(CC)c1nnc(-c2ccc(C#Cc3cccc(F)c3)cc2)o1 [Compound 4, 2-(4-((3-fluorophenyl)ethynyl)phenyl)-5-(pentan-3-yl)-1,3,4-oxadiazole]	30 to 100
CCC(NC)c1nc(-c2ccc(C#Cc3cccc(F)c3)cn2)no1 (centres unmarked) [Compound 115, 1-(3-(5-((3-fluorophenyl)ethynyl)pyridin-2-yl)-1,2,4-oxadiazol-5-yl)-N-methylpropan-1-amine]	30 to 100
Fc1cccc(C#Cc2ccc(-c3nnc(C4CCCC4)o3)cc2)c1 [Compound 1, 2-cyclopentyl-5-(4-((3-fluorophenyl)ethynyl)phenyl)-1,3,4-oxadiazole]	300 to 1000
CCC(C)c1nc(-c2ccc(C#Cc3ccccn3)nc2)no1 (centres unmarked) [Compound 86, 5-(sec-butyl)-3-(6-(pyridin-2-ylethynyl)pyridin-3-yl)-1,2,4-oxadiazole]	30 to 100
CN1C(c2nc(-c3ccc(C#Cc4ccccn4)cn3)no2)CCC1(C)C (centres unmarked) [Compound 153, 3-(5-(pyridin-2-ylethynyl)pyridin-2-yl)-5-(1,5,5-trimethylpyrrolidin-2-yl)-1,2,4-oxadiazole]	30 to 100
CCC(OC)c1nc(-c2ccc(C#Cc3ccccn3)nc2)no1 (centres unmarked) [Compound 89, 5-(1-methoxypropyl)-3-(6-(pyridin-2-ylethynyl)pyridin-3-yl)-1,2,4-oxadiazole]	300 to 1000
CC(C)Cc1nc(-c2ccc(C#Cc3cccc(F)c3)cc2)no1 [Compound 26, 3-(4-((3-fluorophenyl)ethynyl)phenyl)-5-isobutyl-1,2,4-oxadiazole]	300 to 1000
CCC(CC)c1nc(-c2ccc(C#Cc3ccccn3)cn2)no1 [Compound 136, 5-(pentan-3-yl)-3-(5-(pyridin-2-ylethynyl)pyridin-2-yl)-1,2,4-oxadiazole]	≤ 30
Fc1cccc(C#Cc2ccc(-c3noc(C4CCCN4C4CCC4)n3)cc2)c1 (centres unmarked) [Compound 50, 5-(1-cyclobutylpyrrolidin-2-yl)-3-(4-((3-fluorophenyl)ethynyl)phenyl)-1,2,4-oxadiazole]	300 to 1000
Fc1cccc(C#Cc2ccc(-c3noc(C4CCCC4)n3)cc2)c1 [Compound 32, 5-cyclopentyl-3-(4-((3-fluorophenyl)ethynyl)phenyl)-1,2,4-oxadiazole]	100 to 300
CCC(C)c1nc(-c2ccc(C#Cc3cccc(F)c3)cc2)no1 (centres unmarked) [Compound 29, 5-5-(sec-butyl)-3-(4-((3-fluorophenyl)ethynyl)phenyl)-1,2,4-oxadiazole]	100 to 300
CCC(CC)c1nc(-c2ccc(C#Cc3ccccn3)nc2)no1 [Compound 87, 5-(pentan-3-yl)-3-(6-(pyridin-2-ylethynyl)pyridin-3-yl)-1,2,4-oxadiazole]	≤ 30
